Measurements from patent US6124291A, “Pyrrolo[1,2-a]pyrazine-1,4-dione serine protease inhibitors” (Warner-Lambert Company, priority 1998, dated 2000).

Assays:
human thrombin = human thrombin (Homo sapiens, UniProt P00734); assay: Determination of Thrombin Ki (fluorogenic substrate Tos-Gly-Pro-Arg-AMC); format: biochemical; conditions: 50 mM Tris-HCl pH 7.52 at 37° C., 0.1 M NaCl, 0.1% poly(ethylene glycol) 8000, room temperature
Procedure: Compounds of the present invention may be prepared for assay by dissolving them in buffer to give solutions ranging in concentrations from 1 to 100 μM. In an assay to determine the inhibitory dissociation constant, Ki, for a given compound, a chromogenic or fluorogenic substrate of thrombin is added to a solution containing a test compound and thrombin; the resulting catalytic activity of the enzyme is spectrophotometrically determined. This assay is well-known to those skilled in the art and is commonly used to determine antithrombotic activity.
The affinity of inhibitors for thrombin was measured according to the procedures described in (DiMaio, et al., J. Biol. Chem., 1990; 265:21698). Inhibition of amidolytic activity of human thrombin was measured fluorometrically using Tos-Gly-Pro-Arg-AMC as a fluorogenic substrate in 50 mM Tris-HCl buffer (pH 7.52 at 37° C.) containing 0.1 M NaCl and 0.1% poly(ethylene glycol) 8000 at room temperature. Buffer substrate and inhibitor were mixed, and the reaction was initiated by adding the enzyme solution. Initial velocities were recorded at several inhibitor and substrate concentrations. Kinetic parameters were determined by fitting the data to a general equation describing enzyme inhibition (Segel, Enzyme Kinetics, Wiley Interscience Publications, 1993). […]

Factor Xa = Factor Xa (Homo sapiens, UniProt P00742); assay: Determination of Factor Xa IC50 (chromogenic substrate S2765); format: biochemical; conditions: 60 minutes incubation at room temperature
Procedure: (§1) The ability of compounds to act as inhibitors of Factor Xa catalytic activity is assessed by determination of that concentration of test substance that inhibits by 50% (IC50) the ability of Factor Xa to cleave the chromogenic substrate S2765 (N-CBz-D-Arg-L-Gly-L-Arg-p-nitroanilide.cndot.2 HCl). Typically, Factor Xa in 10 mM HEPES, 100 mM NaCl, 0.05% BSA, and 0.1% PEG-8000 and the test substance in DMSO are incubated for 60 minutes at room temperature. To this mixture is added S2765 and the velocity of S2765 hydrolysis measured by observing the intensity of absorbance at 405 nm over 5 minutes.

trypsin = molecular target: T1, trypsin (Bos taurus, UniProt P00760); assay: Determination of Trypsin IC50 (chromogenic substrate S2222); format: biochemical; conditions: 60 minutes incubation at room temperature
T1 sequence (P00760 24-246): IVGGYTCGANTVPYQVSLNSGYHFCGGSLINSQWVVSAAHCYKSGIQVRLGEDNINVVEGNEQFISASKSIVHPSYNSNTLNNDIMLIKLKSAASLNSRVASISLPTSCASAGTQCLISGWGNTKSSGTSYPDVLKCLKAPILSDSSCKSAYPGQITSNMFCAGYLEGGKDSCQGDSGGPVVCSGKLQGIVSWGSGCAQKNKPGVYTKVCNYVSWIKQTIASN
Procedure: as §1, with “trypsin” for “Factor Xa”, “S2222 (N-Bz-L-Ile-L-Glu-L-Gly-L-Arg-p-nitroanilide.cndot.HCl).” for “S2765 (N-CBz-D-Arg-L-Gly-L-Arg-p-nitroanilide.cndot.2 HCl).”, “PEG-8000,” for “PEG-8000”, “S2222” for “S2765”

carotid artery = assay: FeCl3-induced carotid arterial injury model (arterial thrombosis); format: in vivo, rat (male Sprague-Dawley); conditions: rat; IV bolus 0.75 mg/kg then IV infusion 50 μg/kg/min; time to occlusion in drug-treated divided by control; 60 minutes monitoring
Procedure: The FeCl3-- induced injury to the carotid artery in rats was induced according to the method described by Kurz K. D., Main R. W., Sandusky G. E., Thrombosis Research, 1990; 60:269-280 and Schumacher W. A., et al., J. Pharmacology and Experimental Therapeutics, 1993; 267:1237-1242.
Male, Sprague-Dawley rats (375-410 g) were anesthetized with urethane (1500 mg/kg ip). Animals were laid on a 37° C. heating pad. The carotid artery was exposed through a midline cervical incision. Careful blunt dissection was used to isolate the vessel from the carotid sheath. Using forceps, the artery was lifted to provide sufficient clearance to insert two small pieces of polyethylene tubing (PE-205) underneath it. A temperature probe (Physitemp MT23/3) was placed between one of the pieces of tubing and the artery. Injury was induced by topical application on the carotid artery above the temperature probe of a small disc (3 mm dia.) of Whatman No. 1 filter paper previously dipped in a 35% solution of FeCl3. […] The vessel temperature was monitored for 60 minutes after application of FeCl3 as an indication of blood flow. Vessel temperature changes were recorded on a thermistor (Cole-Palmer Model 08533-41).
The time between the FeCl3 application and the time at which the vessel temperature decreased abruptly (>2.4° C.) was recorded as the time to occlusion of the vessel. […]

Sequence of Factor Xa (P00742 235-488 limits assumed): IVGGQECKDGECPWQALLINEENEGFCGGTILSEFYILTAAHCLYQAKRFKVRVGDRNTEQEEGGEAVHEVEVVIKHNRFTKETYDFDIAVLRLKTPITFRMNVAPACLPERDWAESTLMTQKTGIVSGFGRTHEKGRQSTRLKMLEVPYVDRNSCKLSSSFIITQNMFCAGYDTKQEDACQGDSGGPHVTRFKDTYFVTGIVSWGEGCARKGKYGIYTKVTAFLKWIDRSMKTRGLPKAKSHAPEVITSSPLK
Sequence of Factor Xa (P00742 41-179 limits assumed): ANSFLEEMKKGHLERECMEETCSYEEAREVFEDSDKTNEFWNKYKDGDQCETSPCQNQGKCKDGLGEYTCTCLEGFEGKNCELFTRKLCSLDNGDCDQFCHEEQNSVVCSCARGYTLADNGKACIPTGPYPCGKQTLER

Ki (human thrombin): 3 nM
IC50 (Factor Xa): 30 nM
IC50 (trypsin): < 1 nM
Compound: N=C(N)NCCC[C@H](NC(=O)[C@@H]1CC[C@H]2C(=O)N(CCCc3ccccc3)CC(=O)N12)C(=O)c1nccs1 [Example 11, [6S-[6α(R*),8aα]]-1,4-Dioxo-2-(3-phenyl-propyl)-octahydropyrrolo[1,2-a]pyrazine-6-carboxylic acid [4-guanidino-1-(thiazol-2-carbonyl)-butyl]-amide]
Fold Shift in MOT (mean occlusion time) (carotid artery): > 3.3
